Measured values taken from PMC10746543, “Design principles for cyclin K molecular glue degraders” (Nature Chemical Biology, 2023).
Several values for one entry are separate records, joined by “and”; a condition that tells them apart may be missing. Equal values may be shown once. Read-outs that look alike come from different tables or passages of the source.

Columns and labels:
CDK12–cyclin K and DDB1 = target: T1, CDK12–cyclin K and DDB1 (Homo sapiens, UniProt Q16531+Q9NYV4, K965R); assay: TR-FRET ternary complex formation assay (compound titration); type: binding; settings: for TR-FRET signal at compound concentration: replicate titrations
T1 construct: His6–CDK12 (a.a. 713–1,052); full-length or beta-propeller B domain deletion (ΔBPB: a.a. 396–705 deleted) constructs of His6–DDB1ΔBPB, StrepII–Avi–DDB1, or His6–Spy–DDB1; made in house; host or cells: Trichoplusia ni High Five insect cells (baculovirus)
Excerpt: A 70 μs delay was employed to reduce background fluorescence. The TR-FRET signal was obtained through calculating the ratio of 520 nm to 490 nm fluorescence, and Prism 9 (GraphPad) was used for further data analysis.

HEK293T cells = assay: Drug sensitivity assay (CellTiter-Glo viability) with or without MLN4924 pretreatment; type: cell-based, human; settings: for EC50: Homo sapiens, HEK-293T; for Toxicity rescue: MLN4924-mediated cytotoxicity rescue, 10 µM used where n.d.
Procedure: HEK293T–Cas9 cells were resuspended at 0.15 × 10^6 ml^−1 treated with DMSO or 100 nM MLN4924 and plated on 384-well plates. After 2 h, the indicated drugs were dispensed with a D300 digital dispenser (Tecan). After 3 days of drug exposure, cell viability was assessed using the CellTiter-Glo luminescent assay (Promega, G7572) on an CLARIOstar Plus, MARS 3.4 (BMG LabTech). Cell viabilities were calculated relative to DMSO controls.

[1] = system: cyclin K–eGFP degradation reporter; assay: Cyclin K reporter stability analysis (dual-color cyclin K–eGFP reporter); type: cell-based, human
Procedure: HEK293T–Cas9 cells expressing the cyclin K–eGFP degradation reporter were resuspended at 1 × 10^6 ml^−1 and 50 µl of cell suspension was seeded in non-cell-culture-treated 384-well plates. Shortly after, cells were treated with drug or DMSO for 5 h. […] The fluorescent signal was quantified by flow cytometry (LSRFortessa flow cytometer, BD Biosciences). Using FlowJo (flow cytometry analysis software, BD Biosciences), the geometric mean of the eGFP and mCherry fluorescent signal for round and mCherry-positive cells was calculated. The ratio of eGFP to mCherry was normalized to the average of three DMSO-treated controls.

[2] = in vitro complex formation, 50 nM CDK12–cyclin K, 100 nM DDB1, text and figures, read-out: TR-FRET EC50
[3] = sheet MOESM7, read-out: log TR-FRET EC50 (converted)
[4] = Supplementary Table 2, HEK293T viability, 72 h, compound alone, read-out: Cellular assays EC50
[5] = compound concentration 0.468 nM
[6] = compound concentration 7.92001 nM
[7] = compound concentration 15.84 nM
[8] = compound concentration 30.96 nM
[9] = compound concentration 62.6401 nM
[10] = compound concentration 125.28 nM
[11] = compound concentration 244.8 nM
[12] = compound concentration 993.601 nM
[13] = compound concentration 2001.6 nM
[14] = source data sheet correlations, read-out: TR-FRET EC50
[15] = source data sheet correlations, read-out: DC50

T1 sequence (Q9NYV4 713-1052 K965R): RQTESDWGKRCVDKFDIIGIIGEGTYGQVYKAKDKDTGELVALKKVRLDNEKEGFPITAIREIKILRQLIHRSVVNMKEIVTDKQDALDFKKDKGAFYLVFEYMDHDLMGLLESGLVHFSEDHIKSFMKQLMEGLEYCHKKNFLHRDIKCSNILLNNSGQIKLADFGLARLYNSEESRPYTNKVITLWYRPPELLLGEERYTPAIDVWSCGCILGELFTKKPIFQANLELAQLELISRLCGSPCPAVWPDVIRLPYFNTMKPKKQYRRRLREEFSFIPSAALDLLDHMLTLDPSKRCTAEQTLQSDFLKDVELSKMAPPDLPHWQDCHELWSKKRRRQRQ
T1 sequence (O75909 1-267 partner): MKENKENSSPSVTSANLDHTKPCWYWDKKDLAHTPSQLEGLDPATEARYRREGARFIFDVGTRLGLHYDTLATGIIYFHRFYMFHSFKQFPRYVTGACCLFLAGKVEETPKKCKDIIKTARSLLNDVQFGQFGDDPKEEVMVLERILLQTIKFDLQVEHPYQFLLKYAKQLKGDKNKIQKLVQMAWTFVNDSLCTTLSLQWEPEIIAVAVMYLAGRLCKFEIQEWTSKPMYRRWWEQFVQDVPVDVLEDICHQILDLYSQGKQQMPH
T1 sequence (Q16531 whole entry): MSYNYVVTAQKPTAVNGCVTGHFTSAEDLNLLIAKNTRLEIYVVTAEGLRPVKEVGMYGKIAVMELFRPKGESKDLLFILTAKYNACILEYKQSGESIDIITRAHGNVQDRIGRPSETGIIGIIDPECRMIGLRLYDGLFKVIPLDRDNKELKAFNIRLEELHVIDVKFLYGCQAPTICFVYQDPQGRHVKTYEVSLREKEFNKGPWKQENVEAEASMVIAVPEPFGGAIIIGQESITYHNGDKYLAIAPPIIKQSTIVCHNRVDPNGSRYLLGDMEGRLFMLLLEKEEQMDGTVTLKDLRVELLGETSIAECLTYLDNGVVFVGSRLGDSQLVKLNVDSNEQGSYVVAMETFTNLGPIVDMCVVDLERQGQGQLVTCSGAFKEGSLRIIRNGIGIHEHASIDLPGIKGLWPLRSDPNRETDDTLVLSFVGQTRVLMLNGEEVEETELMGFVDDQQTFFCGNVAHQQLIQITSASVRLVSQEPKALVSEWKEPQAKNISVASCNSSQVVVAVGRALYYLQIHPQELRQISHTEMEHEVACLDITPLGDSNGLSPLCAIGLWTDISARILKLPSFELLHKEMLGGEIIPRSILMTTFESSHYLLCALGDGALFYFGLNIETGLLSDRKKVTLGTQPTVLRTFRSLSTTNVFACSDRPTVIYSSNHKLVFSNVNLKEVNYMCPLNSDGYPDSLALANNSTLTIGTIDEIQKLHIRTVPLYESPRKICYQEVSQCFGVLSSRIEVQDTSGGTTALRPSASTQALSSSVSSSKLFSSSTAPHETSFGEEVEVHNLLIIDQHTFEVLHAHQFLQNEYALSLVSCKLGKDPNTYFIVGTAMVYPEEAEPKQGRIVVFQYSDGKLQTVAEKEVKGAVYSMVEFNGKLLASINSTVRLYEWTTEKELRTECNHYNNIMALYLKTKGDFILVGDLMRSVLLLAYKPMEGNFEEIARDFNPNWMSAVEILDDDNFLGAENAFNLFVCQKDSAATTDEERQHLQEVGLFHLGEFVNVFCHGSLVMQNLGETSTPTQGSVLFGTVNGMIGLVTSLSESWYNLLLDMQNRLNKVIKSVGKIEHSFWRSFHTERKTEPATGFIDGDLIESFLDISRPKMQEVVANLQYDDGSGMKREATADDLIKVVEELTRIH

SMILES | EC50 (CDK12–cyclin K and DDB1; [2]) [nM] | EC50 (CDK12–cyclin K and DDB1; [3]) [nM] | EC50 (HEK293T cells; [4]) [nM] | Toxicity rescue (HEK293T cells; Supplementary Table 2) [%] | TR-FRET signal at compound concentration (CDK12–cyclin K and DDB1; [5]) | TR-FRET signal at compound concentration (CDK12–cyclin K and DDB1; compound concentration 2.16 nM) | TR-FRET signal at compound concentration (CDK12–cyclin K and DDB1; compound concentration 3.6 nM) | TR-FRET signal at compound concentration (CDK12–cyclin K and DDB1; [6]) | TR-FRET signal at compound concentration (CDK12–cyclin K and DDB1; [7]) | TR-FRET signal at compound concentration (CDK12–cyclin K and DDB1; [8]) | TR-FRET signal at compound concentration (CDK12–cyclin K and DDB1; [9]) | TR-FRET signal at compound concentration (CDK12–cyclin K and DDB1; [10]) | TR-FRET signal at compound concentration (CDK12–cyclin K and DDB1; [11]) | TR-FRET signal at compound concentration (CDK12–cyclin K and DDB1; [12]) | TR-FRET signal at compound concentration (CDK12–cyclin K and DDB1; [13]) | EC50 (CDK12–cyclin K and DDB1; [14]) [nM] | DC50 [1, 15] [nM] | other results
CC[C@H](CO)Nc1nc(NCCCc2ccnn2C)c2ncn(C(C)C)c2n1 [DS35] | 246 ± 10 | 246 | > 10000 | 0 | – | – | – | – | – | – | – | – | – | – | – | – | – | EC50 (CDK12–cyclin K and DDB1; Supplementary Table 2, read-out: TR-FRET EC50 TR-FRET): 246 nM; TR-FRET signal at compound concentration (CDK12–cyclin K and DDB1; compound concentration 4.68 nM): 0.1529 and 0.1552; TR-FRET signal at compound concentration (CDK12–cyclin K and DDB1; compound concentration 21.6 nM): 0.228 and 0.2468; TR-FRET signal at compound concentration (CDK12–cyclin K and DDB1; compound concentration 36 nM): 0.3788 and 0.4108; TR-FRET signal at compound concentration (CDK12–cyclin K and DDB1; compound concentration 79.2001 nM): 0.6173 and 0.6444; TR-FRET signal at compound concentration (CDK12–cyclin K and DDB1; compound concentration 158.4 nM): 0.9157 and 0.9758; TR-FRET signal at compound concentration (CDK12–cyclin K and DDB1; compound concentration 309.6 nM): 1.283 and 1.333; TR-FRET signal at compound concentration (CDK12–cyclin K and DDB1; compound concentration 626.401 nM): 1.6242 and 1.675; TR-FRET signal at compound concentration (CDK12–cyclin K and DDB1; compound concentration 1252.8 nM): 1.8781 and 1.924; TR-FRET signal at compound concentration (CDK12–cyclin K and DDB1; compound concentration 2448 nM): 2.069 and 2.096; TR-FRET signal at compound concentration (CDK12–cyclin K and DDB1; compound concentration 9936.01 nM): 2.24 and 2.273; TR-FRET signal at compound concentration (CDK12–cyclin K and DDB1; compound concentration 20016 nM): 2.144 and 2.245; DC50 ([1]; Supplementary Table 2, HEK293T cycK-eGFP reporter, 5 h, read-out: Cellular assays DC50): > 10000 nM
CC[C@H](CO)Nc1nc(NCCCc2ccc(Cl)c(Cl)c2)c2ncn(C(C)C)c2n1 [DS65] | 21 ± 1 | 20.8 | 528 | 214 | 0.285 and 0.2127 and 0.2055 | 0.3417 and 0.2944 and 0.2907 | 0.5004 and 0.4783 and 0.4869 | 0.7813 and 0.9382 and 0.8877 | 1.382 and 1.799 and 1.705 | 2.38 and 2.795 and 2.787 | 3.286 and 3.376 and 3.32 | 3.728 and 3.691 and 3.7229 | 3.806 and 3.848 and 3.815 | 3.884 and 3.899 and 3.865 | 3.902 and 3.823 and 3.872 | 20.8 | 103 | –
CC[C@H](CO)Nc1nc(NCCCc2cccc(O)c2)c2ncn(C(C)C)c2n1 [DS68] | 104 ± 7 | – | 2520 | 296 | 0.3136 and 0.2898 | 0.3334 and 0.33 | 0.3697 and 0.368 | 0.4418 and 0.4327 | 0.566 and 0.543 | 0.7892 and 0.7403 | 1.141 and 1.026 | 1.566 and 1.513 | 2.027 and 2.001 | 2.439 and 2.564 | 2.241 and 2.631 | 104 | 571 | TR-FRET signal (CDK12–cyclin K and DDB1; [5]): 0.3136 and 0.2898; TR-FRET signal (CDK12–cyclin K and DDB1; compound concentration 2.16 nM): 0.3334 and 0.33; TR-FRET signal (CDK12–cyclin K and DDB1; compound concentration 3.6 nM): 0.3697 and 0.368; TR-FRET signal (CDK12–cyclin K and DDB1; [6]): 0.4418 and 0.4327; TR-FRET signal (CDK12–cyclin K and DDB1; [7]): 0.566 and 0.543; TR-FRET signal (CDK12–cyclin K and DDB1; [8]): 0.7892 and 0.7403; TR-FRET signal (CDK12–cyclin K and DDB1; [9]): 1.141 and 1.026; TR-FRET signal (CDK12–cyclin K and DDB1; [10]): 1.566 and 1.513; TR-FRET signal (CDK12–cyclin K and DDB1; [11]): 2.027 and 2.001; TR-FRET signal (CDK12–cyclin K and DDB1; [12]): 2.439 and 2.564; TR-FRET signal (CDK12–cyclin K and DDB1; [13]): 2.241 and 2.631; EC50 (HEK293T cells; Supplementary Fig. 5, HEK293T, CellTiter Glo, 72h, pre-treatment with 100 nM MLN4924, read-out: Viability EC50, with MLN4924): 109000 nM
